{"source": "paper PMC10391610", "about": "“Survivin prevents the polycomb repressor complex 2 from methylating histone 3 lysine 27” (iScience, 2023)", "key": {"[1]": {"system": "H3K27me3 / H3K27ac peaks in CD4+ T cells", "assay": "ChIP-seq of H3K27me3 and H3K27ac after YM155 treatment", "assay_type": "cell-based, human", "protocol": "(§1) Human peripheral blood mononuclear cells were isolated from venous peripheral blood by density gradient separation on Lymphoprep (Axis-Shield PoC As, Dundee, Scotland). CD4^+ cells were isolated by positive selection (Invitrogen, 11331D), and cultured (1.25×10^6 cells/ml) in wells coated with anti-CD3 antibody (0.5 mg/ml; OKT3, Sigma-Aldrich, Saint Luis, Missouri, USA), in RPMI medium supplemented with 50 μM β-mercaptoethanol (Gibco, Waltham, Massachusetts, USA), Glutamax 2 mM (Gibco), Gentamicin 50 μg/ml (Sanofi-Aventis, Paris, France) and 10% fetal bovine serum (Sigma-Aldrich) at 37°C in a humidified 5% CO2 atmosphere. Cells were treated with survivin inhibitors serpantronium bromide, YM155[22] (YM155, Selleck Chemicals, Houston, TX), as indicated. The cells were stimulated with recombinant IFNg (50 ng/ml; Peprotech, Cranbury, NJ, USA) during the last 2 h and harversted for RNA-seq. Supernatants were used to measure cytokine levels.\nFor ChIP-seq analysis, CD4^+ cells isolated from 12 women were stimulated with concanavalin A (ConA, 0.625 μg/ml, Sigma-Aldrich), and lipopolysaccharide (LPS) (5 μg/ml, Sigma-Aldrich) for 72 h and pooled in 4 independent samples for DNA purification. After shearing and pre-clearing of chromatin, 1% of the sample was saved as an input. The pre-cleared chromatin was incubated with 2 μg anti-Survivin (10811, Santa Cruz Biotechnology). For ChIPseq targeting histone modifications CD4^+ cells from 3 healthy women were stimulated with concanavalin A and LPS and treated with sepantronium bromide, YM155, 0 or 10 ng/ml, for 24 h. The chromatin was pre-cleared on the beads coated with Sepharose A and incubated with anti-H3K27ac (C15410196, Diagenode), or anti-H3K27me3 (C15410195, Diagenode). The cells were cross-linked and lysed with the EpiTect ChIP OneDay kit (Qiagen), as recommended by the manufacturer. After sonication to shear the chromatin, cellular debris was removed by pelleting. After pre-clearing, 1% of the sample was saved as an input fraction and used as background for nonspecific chromatin binding. Pre-cleared chromatin was incubated with 2 μg of anti-survivin (10811, Santa Cruz Biotechnology, Santa Cruz, CA, USA). The immune complexes were washed, the cross-links were reversed, and the DNA was purified with the EpiTect ChIP OneDay kit (Qiagen) as recommended by the manufacturer. The quality of purified DNA was assessed with TapeStation (Agilent, Santa Clara, CA, USA). DNA libraries were prepared with ThruPLEX (Rubicon) and sequenced with a Hiseq2000 sequencing system (Illumina) according to the manufacturer’s protocols. Bcl-files were converted and demultiplexed to fastq with bcl2fastq (Illumina).\nThe fastq sequencing files were mapped to the human reference genome (hg38) using the STAR aligner[58] with default parameters apart from setting the alignIntronMax flag to 1 for end-to-end mapping. Quality control of the sequenced material was performed by FastQC tool using MultiQC v.0.9dev0 (Babraham Institute, Cambridge, U.K.). Peak calling was performed using the default parameters. Peaks were identified for enrichment of the immunoprecipitation fraction against input (adjusted p < 10^−5) and annotated by HOMER software[59] in standard mode to closest transcription start site (TSS). Peaks with overlapping localization by at least 1 nucleotide in several samples were merged and further on referred to as one peak. […]"}, "[2]": {"system": "gene expression in CD4+ cells", "assay": "RNA-seq after YM155 treatment", "assay_type": "cell-based, human", "protocol": "as §1\nRNA from the CD4^+ cell cultures was prepared using the Norgen Total micro mRNA kit (Norgen, Ontario, Canada). Quality control was done by Bioanalyzer RNA6000 Pico on Agilent2100 (Agilent, Santa Clara, CA, USA). Deep sequencing was done by RNAseq (Hiseq2000, Illumina) at the Science for Life Laboratory, Huddinge, Sweden. Raw sequence data were obtained in Bcl-files and converted into fastq text format using the bcl2fastq program from Illumina.\nMapping of transcripts was done using Genome UCSC annotation set for hg38 human genome assembly. Analysis was performed using the core Bioconductor packages in R-studio v.3.6.3. Differentially expressed genes in CD4^+ cells treated with YM155 were identified using DESeq2 (v.1.26.0) with Benjamini-Hochberg adjustment for multiple testing.\nSupplementary file mmc2.xlsx: Table S1. Differentially expressed protein coding genes connected to the changeable H3K27me3 peaks in CD4^+ T cells, related to Figure 1 CD4^+ T cells (n=4) were cultured with survivin inhibitor YM155 (0 and 10 ng/ml). Expression was analyzed by RNA-seq and compared by paired DESeq2 test."}, "[3]": {"system": "survivin transcription", "parameters": "method as in PMID 17804712", "details": "cited from earlier work"}, "[4]": {"system": "XIAP, cIAP2, Bcl-XL, Bcl-2, Bad, p53, cIAP1, STAT3", "parameters": "method as in 2 sources, ref 22 = [22]; PMID 17804712; doi:10.1158/0008-5472.CAN-07-1343; 22 Nakahara T. Kita A. Yamanaka K. Mori M. Amino N. Takeuchi M. Tominaga F. Hatakeyama S. Kinoyama I. Matsuhisa A. YM155, a novel small-molecule survivin suppressant, induces regression of established ||| ref 23 = [23]; PMID 18927289; doi:10.1158/1078-0432.CCR-08-0468; 23 Iwasa T. Okamoto I. Suzuki M. Nakahara T. Yamanaka K. Hatashita E. Yamada Y. Fukuoka M. Ono K. Nakagawa K. Radiosensitizing effect of YM155, a novel small-molecule survivin suppressant, in non-smal", "details": "cited from earlier work"}}}
{"smiles": "COCCn1c2c([n+](Cc3cnccn3)c1C)C(=O)c1ccccc1C2=O", "note": "[YM155, sepantronium bromide]", "values": [{"measurement": "H3K27 acetylation after survivin inhibition (in words)", "setting": "[1]; CD4+ T cells, YM155 10 ng/ml, 24 h", "value": "virtually unaffected"}, {"measurement": "proportion of H3K27me3 peaks with increased H3K27me3 deposition", "setting": "[1]; CD4+ T cells, YM155 10 ng/ml, 24 h, ConA/LPS stimulated", "value": 85, "unit": "%"}, {"measurement": "increase in tag counts, middle H3K27me3 peak (first)", "setting": "[1]; HOX-B cluster, chromosome 17", "value": 51, "unit": "%"}, {"measurement": "increase in tag counts, middle H3K27me3 peak (second)", "setting": "[1]; HOX-B cluster, chromosome 17", "value": 69, "unit": "%"}, {"measurement": "number of H3K27me3 peaks that increased the count by 30%", "setting": "[1]; YM155-treated CD4+ cell cultures", "value": 7413}, {"measurement": "caudal HOX-B gene expression (in words)", "setting": "[2]; HOX-B8, -B9, and -B13, YM155, CD4+ cells", "value": "a change of the HOX-B genes, which was clearly seen in the caudal HOX-B8, -B9, and -B13 genes"}, {"measurement": "number of genes downregulated (of 157)", "setting": "[2]; genes connected to changed H3K27me3 peaks, YM155-treated CD4+ cells", "value": 100}, {"measurement": "number of protein-coding genes with significantly changed mRNA levels", "setting": "[2]; genes connected to regulatory elements at changed H3K27me3 peaks, nominal p < 0.01, YM155-treated CD4+ cells", "value": 157}, {"measurement": "effect on survivin transcription (in words)", "setting": "[3]", "value": "specifically inhibits survivin transcription"}, {"measurement": "effect on expression of XIAP, cIAP2, Bcl-XL, Bcl-2, Bad (in words)", "setting": "[4]", "value": "does not change the expression"}, {"measurement": "effect on expression of p53, cIAP1, STAT3 (in words)", "setting": "[4]", "value": "does not change the expression"}]}
